Data published in patent US8129366B2, “VLA-4 inhibitory drug” (Daiichi Sankyo Company, Limited, priority 2005, dated 2012).

Target: T1, hα4 and β1 integrins (Homo sapiens, UniProt P05556+P13612)
T1 construct: expressed in transfected cells; host or cells: CHO cells
Experiment: In vitro inhibition of binding between CHO cells expressing hα4 and β1 integrins and Eu3+-hVCAM-1 D1D7-IgG
Settings: for Ki: CHO cells expressing hα4 and β1 integrins, Eu3+-hVCAM-1 D1D7-IgG ligand, without HSA; for IC50: in the presence of 3% human serum albumin (HSA final concentration 3%)
Protocol: CHO cells which forcibly expressed hα4 and β1 integrins through transfection thereof, were inoculated into a Costar 3599 plate (3×10^4 cells/100 μl/well), and cultured for two days. The cells in the wells were washed two times with buffer A*, and then Eu^3+-hVCAM-1 D1D7-IgG diluted with assay buffer** to 2 nM was added in an amount of 50 μl/well. The substance under test diluted with 26 DMSO-assay buffer (in the co-presence or absence of 6% human serum albumin) was added in an amount of 50 μl/well (adding separately diluted solution to the wells for performing Scatchard analysis), the contents were stirred for 5 minutes with a plate mixer, and then the plate was left to stand still for one hour at room temperature. The binding inhibitory activity in the presence of human serum albumin (HSA) was examined by diluting the specimen with 26 DMSO-assay buffer containing 6% HSA (SIGMA Corp., c/n A-1653), and adding the resultant (HSA final concentration 3%). After 30 to 60 minutes of the addition of specimen, the plate contents were washed 4 times with buffer A at 4° C., an enhancing reagent (DELFIA SA) was added in an amount of 100 μl/well, and the plate was shaken for 5 minutes using a plate mixer. Subsequently, the fluorescence intensity was measured with a time-resolved fluorometer (DELFIA Wallac). The IC50 of the substance under test (the concentration for 50% inhibition of the binding between CHO cells and Eu^3+-hVCAM-1 D1D7-IgG) was determined from the binding rate obtained from the calculating expression of [(FT−FNS)−(FI−FNS)]/[(FT−FNS)]×100. Here, FT represents the fluorescence intensity of a well not containing the substance under test; FNS represents the fluorescence intensity of a well not containing the substance under test and hVCAM-1 D1D7-IgG; and FI represents the fluorescence intensity of a well containing the substance under test. The Kd value which represents the strength of binding, and Bmax (maximum binding amount) were estimated to be in the range of 0.06 to 20 nM according to the Scatchard analysis method. The evaluation results of the Ki value of the substance under test, and of the IC50 value in the presence of 3% HSA are presented in Tables 2 to 7.
The Ki value was calculated according to the above-described expression. ([L] is the ligand concentration)
[* buffer A: 25 mM HEPES (pH 7.5), 150 mM NaCl, 1 mM Ca^2+, 1 mM Mg^2+, 4 mM Mn2+;
** assay buffer: 25 mM HEPES (pH=7.5), 150 mM NaCl, 1 mM Ca^2+, 1 mM Mg^2+, 4 mM Mn^2+, 0.1% BSA, 20 μM DTPA, with/without 6% ALBUMIN, HUMAN SERUM (C/N A-1653, SIGMA)]

T1 sequence (P13612 34-1032): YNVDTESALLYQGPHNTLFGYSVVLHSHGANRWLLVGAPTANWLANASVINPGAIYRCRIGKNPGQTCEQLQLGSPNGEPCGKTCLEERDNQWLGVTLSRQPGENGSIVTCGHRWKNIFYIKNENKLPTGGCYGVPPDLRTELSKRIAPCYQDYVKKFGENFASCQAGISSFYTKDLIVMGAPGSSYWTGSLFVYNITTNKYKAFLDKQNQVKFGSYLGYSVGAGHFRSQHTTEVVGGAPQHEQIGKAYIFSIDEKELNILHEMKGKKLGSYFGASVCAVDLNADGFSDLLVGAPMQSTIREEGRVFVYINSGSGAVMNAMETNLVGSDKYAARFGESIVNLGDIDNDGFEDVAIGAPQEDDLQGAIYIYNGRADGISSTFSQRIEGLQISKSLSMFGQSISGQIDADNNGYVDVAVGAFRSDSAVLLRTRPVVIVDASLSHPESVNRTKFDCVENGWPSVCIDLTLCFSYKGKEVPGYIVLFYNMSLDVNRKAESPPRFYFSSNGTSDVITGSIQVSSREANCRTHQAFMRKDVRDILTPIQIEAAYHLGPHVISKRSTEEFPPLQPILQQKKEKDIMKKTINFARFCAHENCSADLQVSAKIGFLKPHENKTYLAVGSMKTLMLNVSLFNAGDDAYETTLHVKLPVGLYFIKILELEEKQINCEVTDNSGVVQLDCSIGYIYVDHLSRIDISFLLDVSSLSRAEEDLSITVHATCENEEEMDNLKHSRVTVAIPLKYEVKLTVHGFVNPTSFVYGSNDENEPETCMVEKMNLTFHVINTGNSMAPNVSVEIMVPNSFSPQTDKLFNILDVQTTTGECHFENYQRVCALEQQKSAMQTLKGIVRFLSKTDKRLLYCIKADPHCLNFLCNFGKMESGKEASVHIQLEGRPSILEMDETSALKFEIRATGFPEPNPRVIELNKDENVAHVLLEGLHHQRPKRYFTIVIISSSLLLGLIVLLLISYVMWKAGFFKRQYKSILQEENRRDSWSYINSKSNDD
T1 sequence (P05556 21-798): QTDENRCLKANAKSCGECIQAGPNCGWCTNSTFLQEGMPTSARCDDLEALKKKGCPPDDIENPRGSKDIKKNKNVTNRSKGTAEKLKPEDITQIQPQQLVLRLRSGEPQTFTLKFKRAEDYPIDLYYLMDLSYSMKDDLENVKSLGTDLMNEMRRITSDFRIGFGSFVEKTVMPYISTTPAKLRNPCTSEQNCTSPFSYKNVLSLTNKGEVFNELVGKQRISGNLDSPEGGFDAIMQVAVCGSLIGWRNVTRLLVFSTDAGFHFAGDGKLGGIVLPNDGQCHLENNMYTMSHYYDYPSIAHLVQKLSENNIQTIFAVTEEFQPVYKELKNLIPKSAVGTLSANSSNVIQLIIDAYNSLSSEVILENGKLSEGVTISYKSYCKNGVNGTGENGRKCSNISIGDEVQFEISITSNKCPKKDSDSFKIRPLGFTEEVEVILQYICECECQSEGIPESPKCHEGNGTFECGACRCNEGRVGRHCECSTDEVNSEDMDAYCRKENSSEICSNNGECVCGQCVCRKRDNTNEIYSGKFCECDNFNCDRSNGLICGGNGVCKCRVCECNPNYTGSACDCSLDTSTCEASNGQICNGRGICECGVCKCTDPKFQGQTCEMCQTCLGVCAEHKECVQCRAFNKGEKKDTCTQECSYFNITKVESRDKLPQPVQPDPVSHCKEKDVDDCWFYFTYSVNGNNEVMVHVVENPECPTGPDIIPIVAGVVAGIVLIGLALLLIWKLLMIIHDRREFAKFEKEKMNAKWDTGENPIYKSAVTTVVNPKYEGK

Row | Ki [nM] | IC50 [nM] | Compound
1 | 8.8 | 36 | Cn1cc(C(=O)Nc2cc(Cl)c(CC(=O)N3C[C@@H](N4CCN(CC(F)(F)F)CC4)C[C@H]3CO[C@H]3CC[C@H](C(=O)O)CC3)cc2Cl)c2ccccc21 [Example 122, Trans-4-[1-[[2,5-dichloro-4-[(1-methyl-1H-indol-3-ylcarbonyl)amino]phenyl]acetyl]-(4S)-[4-(2,2,2-trifluoroethyl)piperazin-1-yl]-(2S)-pyrrolidinylmethoxy]cyclohexanecarboxylic acid]
2 | 4.5 | 12 | Cn1cc(C(=O)Nc2cc(Cl)c(CC(=O)N3C[C@@H](N4CCN(CCF)CC4)C[C@H]3CO[C@H]3CC[C@H](C(=O)O)CC3)cc2Cl)c2ccccc21 [Example 117, Trans-4-[1-[[2,5-dichloro-4-[(1-methyl-1H-indol-3-ylcarbonyl)amino]phenyl]acetyl]-(4S)-[4-(2-fluoroethyl)piperazin-1-yl]-(2S)-pyrrolidinylmethoxy]cyclohexanecarboxylic acid]
3 | 3.1 | 8.2 | Cn1cc(C(=O)Nc2cc(Cl)c(CC(=O)N3C[C@@H](N4CCC(S(C)(=O)=O)CC4)C[C@H]3CO[C@H]3CC[C@H](C(=O)O)CC3)cc2Cl)c2ccccc21 [Example 108, Trans-4-[1-[[2,5-dichloro-4-[(1-methyl-1H-indol-3-ylcarbonyl)amino]phenyl]acetyl]-(4S)-(4-methanesulfonylpiperidin-1-yl)-(2S)-pyrrolidinylmethoxy]cyclohexanecarboxylic acid]
4 | 0.89 | 3 | CC1CCN([C@H]2C[C@@H](CO[C@H]3CC[C@H](C(=O)O)CC3)N(C(=O)Cc3cc(Cl)c(NC(=O)c4csc5ccccc45)cc3F)C2)CC1 [Example 98, Trans-4-[1-[[4-[(benzo[b]thiophen-3-ylcarbonyl)amino]-5-chloro-2-fluorophenyl]acetyl]-(4S)-(4-methylpiperidin-1-yl)-(2S)-pyrrolidinylmethoxy]cyclohexanecarboxylic acid]
5 | 2.9 | 8.7 | COCCN1CCN([C@H]2C[C@@H](CO[C@H]3CC[C@H](C(=O)O)CC3)N(C(=O)Cc3cc(Cl)c(NC(=O)c4cn(C)c5ccccc45)cc3Cl)C2)CC1 [Example 137, Trans-4-[1-[[2,5-dichloro-4-[(1-methyl-1H-indol-3-ylcarbonyl)amino]phenyl]acetyl]-(4S)-(4-(2-methoxyethyl)piperazin-1-yl)-(2S)-pyrrolidinylmethoxy]cyclohexanecarboxylic acid]
6 | 4 | 17 | Cn1cc(C(=O)Nc2cc(F)c(CC(=O)N3C[C@@H](N4CCC(F)(F)CC4)C[C@H]3CO[C@H]3CC[C@H](C(=O)O)CC3)cc2Cl)c2ccccc21 [Example 101, Trans-4-[1-[[5-chloro-2-fluoro-4-[(1-methyl-1H-indol-3-ylcarbonyl)amino]phenyl]acetyl]-(4S)-(4,4-difluoropiperidin-1-yl)-(2S)-pyrrolidinylmethoxy]cyclohexanecarboxylic acid]
7 | 4.4 | 19 | O=C(Nc1cc(Cl)c(CC(=O)N2C[C@@H](N3CCCOCC3)C[C@H]2CO[C@H]2CC[C@H](C(=O)O)CC2)cc1Cl)c1coc2ccccc12 [Example 167, Trans-4-[1-[[4-[(benzo[b]furan-3-ylcarbonyl)amino]-2,5-dichlorophenyl]acetyl]-(4S)-([1,4]-oxazepan-4-yl)-(2S)-pyrrolidinylmethoxy]cyclohexanecarboxylic acid]
8 | 3.8 | 16 | Cn1cc(C(=O)Nc2cc(Cl)c(CC(=O)N3C[C@@H](N4CCN(CC(F)F)CC4)C[C@H]3CO[C@H]3CC[C@H](C(=O)O)CC3)cc2Cl)c2ccccc21 [Example 120, Trans-4-[1-[[2,5-dichloro-4-[(1-methyl-1H-indol-3-ylcarbonyl)amino]phenyl]acetyl]-(4S)-[4-(2,2-difluoroethyl)piperazin-1-yl]-(2S)-pyrrolidinylmethoxy]cyclohexanecarboxylic acid]
9 | 2.5 | 14 | CN(C)C1CN([C@H]2C[C@@H](CO[C@H]3CC[C@H](C(=O)O)CC3)N(C(=O)Cc3cc(Cl)c(NC(=O)c4csc5ccccc45)cc3Cl)C2)C1 [Example 23, Trans-4-[1-[[4-[(benzo[b]thiophen-3-ylcarbonyl)amino]-2,5-dichlorophenyl]acetyl]-(4S)-[3-(N,N-dimethylamino)azetidin-1-yl]-(2S)-pyrrolidinylmethoxy]cyclohexanecarboxylic acid]
10 | 0.74 | 4.1 | C[C@@H]1CN([C@H]2C[C@@H](CO[C@H]3CC[C@H](C(=O)O)CC3)N(C(=O)Cc3cc(Cl)c(NC(=O)c4csc5ccccc45)cc3F)C2)C[C@H](C)O1 [Example 79, Trans-4-[1-[[4-[(benzo[b]thiophen-3-ylcarbonyl)amino]-5-chloro-2-fluorophenyl]acetyl]-(4S)-(cis-2,6-dimethylmorpholin-4-yl)-(2S)-pyrrolidinylmethoxy]cyclohexanecarboxylic acid]
11 | 3.9 | 11 | CN1CCN([C@H]2C[C@@H](CO[C@H]3CC[C@H](C(=O)O)CC3)N(C(=O)Cc3cc(Cl)c(NC(=O)c4cn(C)c5ccccc45)cc3Cl)C2)CC1=O [Example 152, Trans-4-[1-[[2,5-dichloro-4-[(1-methyl-1H-indol-3-ylcarbonyl)amino]phenyl]acetyl]-(4S)-(4-methyl-3-oxopiperazin-1-yl)-(2S)-pyrrolidinylmethoxy]cyclohexanecarboxylic acid]
12 | 6.1 | 66 | Cn1cc(C(=O)Nc2cc(F)c(CC(=O)N3C[C@@H](N4CCCO4)C[C@H]3CO[C@H]3CC[C@H](C(=O)O)CC3)cc2Cl)c2ccccc21 [Example 69, Trans-4-[1-[[5-chloro-2-fluoro-4-[(1-methyl-1H-indol-3-ylcarbonyl)amino]phenyl]acetyl]-(4S)-(isoxazolidin-2-yl)-(2S)-pyrrolidinylmethoxy]cyclohexanecarboxylic acid]
13 | 3.9 | 7.4 | Cn1cc(C(=O)Nc2cc(Cl)c(CC(=O)N3C[C@@H](N4CCCCC4)C[C@H]3CO[C@H]3CC[C@H](C(=O)O)CC3)cc2Cl)c2ccccc21 [Example 96, Trans-4-[1-[[2,5-dichloro-4-[(1-methyl-1H-indol-3-ylcarbonyl)amino]phenyl]acetyl]-(4S)-(piperidin-1-yl)-(2S)-pyrrolidinylmethoxy]cyclohexanecarboxylic acid]
14 | 6.4 | 36 | Cn1cc(C(=O)Nc2cc(F)c(CC(=O)N3C[C@@H](N4CC5CC4CO5)C[C@H]3CO[C@H]3CC[C@H](C(=O)O)CC3)cc2Cl)c2ccccc21 (stereo partly drawn) [Example 163, Trans-4-[1-[[5-chloro-2-fluoro-4-[(1-methyl-1H-indol-3-ylcarbonyl)amino]phenyl]acetyl]-(4S)-[(1S,4S)-2-oxa-5-azabicyclo[2.2.1]heptan-5-yl]-(2S)-pyrrolidinylmethoxy]cyclohexanecarboxylic acid]
15 | 2.1 | 9.2 | Cn1cc(C(=O)Nc2cc(F)c(CC(=O)N3C[C@@H](N4CC[C@H](F)C4)C[C@H]3CO[C@H]3CC[C@H](C(=O)O)CC3)cc2Cl)c2ccccc21 [Example 37, Trans-4-[1-[[5-chloro-2-fluoro-4-[(1-methyl-1H-indol-3-ylcarbonyl)amino]phenyl]acetyl]-(4S)-[(3S)-fluoropyrrolidin-1-yl]-(2S)-pyrrolidinylmethoxy]cyclohexanecarboxylic acid]
16 | 1.7 | 8.2 | O=C(Nc1cc(Cl)c(CC(=O)N2C[C@@H](N3CCCOCC3)C[C@H]2CO[C@H]2CC[C@H](C(=O)O)CC2)cc1Cl)c1csc2ccccc12 [Example 166, Trans-4-[1-[[4-[(benzo[b]thiophen-3-ylcarbonyl)amino]-2,5-dichlorophenyl]acetyl]-(4S)-([1,4]-oxazepan-4-yl)-(2S)-pyrrolidinylmethoxy]cyclohexanecarboxylic acid]
17 | 1.7 | 4 | O=C(Nc1ccc(CC(=O)N2C[C@@H](N3CCN(CC(F)(F)F)CC3)C[C@H]2CO[C@H]2CC[C@H](C(=O)O)CC2)cc1Cl)c1coc2ccccc12 [Example 132, Trans-4-[1-[[4-[(benzo[b]furan-3-ylcarbonyl)amino]-3-chlorophenyl]acetyl]-(4S)-[4-(2,2,2-trifluoroethyl)piperazin-1-yl]-(2S)-pyrrolidinylmethoxy]cyclohexanecarboxylic acid]
